For the assay, the target named is Wee1-like protein kinase (Homo sapiens, UniProt P30291). In words: Enzymatic Activity of Wee1: In the present disclosure, Wee1 enzyme catalysis assay was carried out using the ATP-Glo Max kinase luminescence detection kit (Promega). Kinase activity was assessed by quantitative detection of the amount of ATP retained in the solution following the kinase reaction. The luminescent signal in the assay is proportional to the amount of ATP and inversely proportional to the kinase activity. The concentration of the compound in the assay ranged from 0.5 nM to 30 μM. The compound was dissolved in 10% DMSO, and 5 μL of the solution was added to 50 μL of the reaction, and the concentration of DMSO in the final reaction was 1%. The reaction was carried out at 30° C. for 50 minutes. 40 mM trishydroxymetyl aminomethane, pH 7.4, 10 mM MgCl2, 0.1 mg/ml BSA, 2 mM DTT, 0.1 mg/ml Poly (Lys, Tyr) substrate, 10 μM ATP and Wee1 were contained in the reaction mixture. After the enzymatic reaction, 50 μL of ATP-Glo Max kinase luminescence detection assay solution (Promega) was added and incubated for 15 minutes at room temperature. The luminescent signal was measured using a microplate reader. In some assays, a known Wee1 inhibitor was added as a positive control. Luminance data was analyzed using Graphpad software.
Sequence of Wee1-like protein kinase (P30291 whole entry): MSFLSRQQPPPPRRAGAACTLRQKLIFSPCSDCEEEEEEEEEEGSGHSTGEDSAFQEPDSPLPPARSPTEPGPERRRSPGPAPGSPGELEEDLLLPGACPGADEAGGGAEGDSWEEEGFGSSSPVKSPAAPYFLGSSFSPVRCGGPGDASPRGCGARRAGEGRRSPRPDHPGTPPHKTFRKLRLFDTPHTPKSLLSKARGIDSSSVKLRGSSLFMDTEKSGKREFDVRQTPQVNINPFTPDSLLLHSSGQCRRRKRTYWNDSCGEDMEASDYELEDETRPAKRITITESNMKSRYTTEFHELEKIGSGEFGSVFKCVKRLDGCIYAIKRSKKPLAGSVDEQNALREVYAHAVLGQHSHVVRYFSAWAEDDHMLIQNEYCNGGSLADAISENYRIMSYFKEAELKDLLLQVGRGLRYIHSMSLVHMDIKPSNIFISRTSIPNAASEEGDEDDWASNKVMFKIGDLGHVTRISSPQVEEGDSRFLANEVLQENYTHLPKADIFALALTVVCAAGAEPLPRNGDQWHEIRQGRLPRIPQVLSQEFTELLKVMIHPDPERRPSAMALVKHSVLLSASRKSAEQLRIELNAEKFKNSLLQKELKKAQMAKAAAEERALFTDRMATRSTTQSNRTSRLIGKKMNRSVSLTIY

For `CC(C)N1Cc2cc(Nc3ncc4c(=O)n5n(c4n3)-c3ccc4c(n3)N(CCC/C=C\C5)C(=O)CO4)ccc2C2(CC2)C1`, the half-inhibitory concentration (IC50) was determined as 10.4 nM. The same measure for `CC(C)N1Cc2ccc(Nc3ncc4c(=O)n5n(c4n3)-c3ccc4c(n3)N(CCC/C=C\C5)C(=O)CO4)cc2C2(CC2)C1`: 10.2 nM.

In general, IC50 refers to the midpoint of a concentration-inhibition curve.

Values taken from ChEMBL document CHEMBL5728983, “Macrocyclic derivative of pyrazol[3,4-d]pyrimidin-3-one, pharmaceutical composition and use thereof” (2022).
